In experiment [1] the test system is human promyelocytic leukemia cell line HL-60. The experiment can be described thus: Cytostatic activity in vitro, HL-60 sensitive line. Format: cell-based. Conditions: 50% inhibition of cell growth after 72 h continuous exposure; read-out: HL60 IC50. From the text:
(§1) Tables 3 and 4 show cytostatic activity in vitro of 2,6-disubstituted and 2- or 6-monosubstituted (Tab.3), and of 2,5-disubstituted-(Tab.-4) tetracyclic anthrapyridazone derivatives using leukemia cell line HL-60 and the resistant cell sublines with resistance induced by vincristine (MDR-1) or doxorubicin (MRP). Activity of compounds is differentiated depending on their structure, but in all cases resistance indexes are more advantageous in comparison with reference compounds: doxorubicin and mitoxantrone.

Experiment [2] deals with HL60/VINC. The experiment can be described thus: Cytostatic activity in vitro, vincristine-induced resistant subline (MDR-1). Format: cell-based, human. The settings on record: for IC50: 72 h continuous exposure; for RI resistance index HL60/VINC: IC50(resistant cells)/IC50(sensitive cells), HL60/VINC vs HL60, 72 h.
Description: as §1

The subject of experiment [3] is HL60/DX. The experiment can be described thus: Cytostatic activity in vitro, doxorubicin-induced resistant subline (MRP). The format is cell-based, human. The settings on record: for IC50: 72 h continuous exposure; for RI resistance index HL60/DX: IC50(resistant cells)/IC50(sensitive cells), HL60/DX vs HL60, 72 h.
Description: as §1

Experiment [4] deals with human prostate cancer cell line DU145. The experiment can be described thus: Cytostatic activity in vitro, prostate cancer DU145. Format: cell-based. Conditions: 72 h continuous exposure. From the text:
(§2) Table 5 presents activity in vitro of anthrapiridazone derivatives towards three cell lines of prostate cancer, naturally multidrug resistant, in comparison with references doxorubicin, mitoxantrone and taxol.

Experiment [5] deals with human prostate cancer cell line LNCaP. The experiment is described as follows: Cytostatic activity in vitro, prostate cancer LNCaP. Format: cell-based. The settings on record: 72 h continuous exposure.
Description: as §2

Experiment [6] concerns human prostate cancer cell line PC3. The experiment can be described thus: Cytostatic activity in vitro, prostate cancer PC3. Format: cell-based. The settings on record: 72 h continuous exposure.
Description: as §2

In experiment [7] the test system is CT-DNA. The experiment is described as follows: Interaction with isolated CT-DNA, fluorescence competition with ethidium bromide. Format: binding. The settings on record: for IC50: 50% decrease in fluorescence intensity of DNA-bromide ethydine complex; for Kapp relative constant of DNA-compound bonding: Kapp = (1.26/C50) × KEtBr, KEtBr = 10^7M. The source says:
It could be supposed that this property explains cytostatic activity of compounds. In Table 9 there are presented quantitative data on the affinity to DNA of tested compounds using the fluorescence method and competitive affinity to DNA of bromine ethydine and tested compounds.

Take `CCN(CC)CCNc1ccc2c(=O)[nH]nc3c2c1C(=O)c1ccccc1-3` [PDZ-18, 6-(2-Diethylaminoethyloamino)-2,7-dihydro-3H-dibenzo[de,h]cynnoline-3,7-dione]: the IC50 in experiment [1] is 115 ± 3 nM; in experiment [2] it was 597 ± 16 nM; in experiment [3] it was 3500 ± 752 nM; in experiment [4], 418 ± 58 nM; in experiment [5], 465 ± 121 nM; in experiment [6], 974 ± 159 nM. Further, the concentration for half-maximal inhibition (IC50) in experiment [7] was 1960 ± 120 nM. Further, in experiment [2], the “RI resistance index HL60/VINC” value was determined as 5.2. Further, the “RI resistance index HL60/DX” value in experiment [3] is recorded as 30.4. In experiment [7], this compound gave a Kapp relative constant of DNA-compound bonding of 6.4e+06 M⁻¹.
As for `CC(=O)NCCCNc1ccc2c(=O)n(CCN(C)C)nc3c2c1C(=O)c1ccccc1-3` [PDZ-13, 2-[2-(Dimethylamino)ethyl]-6-[(3-acetylaminopropyl)amino]-2,7-dihydro-3H-dibenzo [de,h]cynnoline-3,7-dione], the IC50 is 13 ± 1 nM in experiment [1]; 421 ± 24 nM in experiment [2]; 3240 ± 558 nM in experiment [3]; 36.7 ± 7.4 nM in experiment [4]; 50.7 ± 10.2 nM in experiment [5]; 106 ± 5.7 nM in experiment [6]. The IC50 in experiment [7] amounted to 1840 ± 160 nM. Besides, the “RI resistance index HL60/VINC” value in experiment [2] came to 32.4. For the same compound, in experiment [3], the “RI resistance index HL60/DX” value was found to be 249.2. This compound returned a Kapp relative constant of DNA-compound bonding in experiment [7] of 6.8e+06 M⁻¹.
Regarding `O=C1c2ccccc2-c2n[nH]c(=O)c3ccc(NCCNCc4ccccc4)c1c23` [PDZ-10, 6-(2-Benzylaminoetyloamino)-2,7-dihydro-3H-dibenzo[de,h]cynnoline-3,7-dione], the IC50 in experiment [1] was determined as 758 ± 115 nM; in experiment [2], 1160 ± 93 nM; in experiment [3] it was 2770 ± 494 nM; in experiment [4], 2090 ± 583 nM; in experiment [5] it was 1550 ± 363 nM; in experiment [6], 3010 ± 264 nM. The compound also registered an IC50 in experiment [7] of 3150 ± 150 nM. In addition, the “RI resistance index HL60/VINC” value in experiment [2] was 1.5. Further, the “RI resistance index HL60/DX” value in experiment [3] worked out at 3.7. The compound further returned a Kapp relative constant of DNA-compound bonding in experiment [7] of 4e+06 M⁻¹.
For the compound `CN(C)CCCNc1ccc2c(=O)[nH]nc3c2c1C(=O)c1ccccc1-3` [Compound C-131, 6-[(3-Dimethylamino)propyl]amino-3H-dibenzo[de,h]cynnoline-3,7-dione], the IC50 in experiment [1] is 1150 ± 244 nM; in experiment [2], 1010 ± 51 nM; in experiment [3], 4470 ± 428 nM; in experiment [4], 1480 ± 127 nM; in experiment [5], 927 ± 92 nM; in experiment [6], 2830 ± 234 nM. Moreover, in experiment [7], the IC50 amounted to 1630 ± 120 nM. For the same compound, in experiment [2], the “RI resistance index HL60/VINC” value was 0.9. For the same compound, the “RI resistance index HL60/DX” value in experiment [3] was found to be 3.9. The Kapp relative constant of DNA-compound bonding in experiment [7] was 7.7e+06 M⁻¹.
As for `CN(C)CCn1nc2c3c(c(NCCCN)ccc3c1=O)C(=O)c1ccccc1-2` [PDZ-20, 2-[2-(Dimethylamino)ethyl]-6-[(3-aminopropyl)amino]-2,7-dihydro-3H-dibenzo [de,h]cynnoline-3,7-dione], the IC50 in experiment [1] stood at 8.6 ± 0.9 nM; in experiment [2], 82.2 ± 6.1 nM; in experiment [3], 2600 ± 436 nM; in experiment [4], 47.3 ± 11.5 nM; in experiment [5], 31.4 ± 4.6 nM; in experiment [6], 245 ± 36 nM. In experiment [7], this compound had an IC50 of 220 ± 60 nM. Besides, the “RI resistance index HL60/VINC” value in experiment [2] is on record as 9.6. The “RI resistance index HL60/DX” value in experiment [3] is reported as 302.2. Also, the Kapp relative constant of DNA-compound bonding in experiment [7] was 5.79e+07 M⁻¹.
With `CN(C)CCn1nc2c3c(c(NCC(=O)N(C)C)ccc3c1=O)C(=O)c1ccccc1-2` [PDZ-12, 2-[2-(Dimethylamino)ethyl]-6-[(N,N-dimethylacetamido)amino]-2,7-dihydro-3H-dibenzo[de,h]cynnoline-3,7-dione], the IC50 in experiment [1] stood at 113 ± 7 nM; in experiment [2], 947 ± 111 nM; in experiment [3], 2680 ± 768 nM; in experiment [4], 169 ± 47 nM; in experiment [5] it was 237 ± 45 nM; in experiment [6], 947 ± 37 nM. In addition, the IC50 in experiment [7] was found to be 2640 ± 290 nM. In addition, the “RI resistance index HL60/VINC” value in experiment [2] worked out at 8.4. In experiment [3], the “RI resistance index HL60/DX” value is on record as 23.7. Also, in experiment [7], the Kapp relative constant of DNA-compound bonding was 4.8e+06 M⁻¹.
With `CN(C)CCn1nc2c3ccccc3c3nn(CCN(C)C)c4ccc(c1=O)c2c34` [Compound C-163, Bis-2,6-[2-(dimethylamino)ethyl]-2,6-dihydro-5H-benzo[h]indazolo[5,4,3-def]cynnoline-5-one], the IC50 in experiment [1] is 31 ± 6 nM; in experiment [2], 48 ± 7 nM; in experiment [3], 330 ± 17 nM; in experiment [4], 21.8 ± 4.7 nM; in experiment [5], 28.2 ± 7.4 nM; in experiment [6] it was 122 ± 27.6 nM. In experiment [7], this compound came in with an IC50 of 230 ± 10 nM. The “RI resistance index HL60/VINC” value in experiment [2] stood at 1.5. For the same compound, the “RI resistance index HL60/DX” value in experiment [3] was determined as 10.6. This compound also had a Kapp relative constant of DNA-compound bonding in experiment [7] of 5.57e+07 M⁻¹.
As for `CN(C)CCNc1ccc2c(=O)n(CCO)nc3c2c1C(=O)c1ccccc1-3` [Compound C-167, 2-(2-Hydroxyethyl)-6-(2-dimethylamino)ethylamino-2H-dibenzo[de,h]cynnoline-3,7-dione], the IC50 in experiment [1] was determined as 111 ± 27 nM; in experiment [2], 393 ± 45 nM; in experiment [3], 1240 ± 206 nM; in experiment [4], 294 ± 53 nM; in experiment [5], 202 ± 35 nM; in experiment [6], 776 ± 45 nM. Further, the IC50 in experiment [7] was 2040 ± 70 nM. For the same compound, in experiment [2], the “RI resistance index HL60/VINC” value amounted to 3.5. Also, in experiment [3], the “RI resistance index HL60/DX” value came out at 11.1. In experiment [7], this compound registered a Kapp relative constant of DNA-compound bonding of 6.2e+06 M⁻¹.
For `CNc1ccc2c(=O)n(CCN(C)C)nc3c2c1C(=O)c1ccccc1-3` [PDZ-7, 2-[2-(Dimethylamino)ethyl]-6-(N-methylamino)-2,7-dihydro-3H-dibenzo[de,h]cynnoline-3,7-dione], the IC50 is 21 ± 1 nM in experiment [1]; 43 ± 2 nM in experiment [2]; 620 ± 62 nM in experiment [3]; 28.6 ± 2.8 nM in experiment [4]; 65.4 ± 7.4 nM in experiment [5]; 80.5 ± 12 nM in experiment [6]. Moreover, the IC50 in experiment [7] stood at 1850 ± 160 nM. In addition, the “RI resistance index HL60/VINC” value in experiment [2] was 2.0. For the same compound, the “RI resistance index HL60/DX” value in experiment [3] came to 29.5. Besides, the Kapp relative constant of DNA-compound bonding in experiment [7] is 6.8e+06 M⁻¹.
Consider `CN(C)CCCn1nc2c3c(c(N)ccc3c1=O)C(=O)c1ccccc1-2` [PDZ-3, 2-[3-(Dimethylamino)propyl]-6-amino-2,7-dihydro-3H-dibenzo[de,h]cynnoline-3,7-dione], for which the IC50 in experiment [1] was 269 ± 41 nM; in experiment [2], 509 ± 54 nM; in experiment [3] it was 919 ± 89 nM; in experiment [4], 725 ± 121 nM; in experiment [5], 549 ± 85 nM; in experiment [6], 709 ± 163 nM. Moreover, the IC50 in experiment [7] is 1760 ± 120 nM. For the same compound, the “RI resistance index HL60/VINC” value in experiment [2] was determined as 1.9. The “RI resistance index HL60/DX” value in experiment [3] was 3.4. Moreover, the Kapp relative constant of DNA-compound bonding in experiment [7] was found to be 7.1e+06 M⁻¹.
As for `Nc1ccc2c(=O)n(CCN3CCOCC3)nc3c2c1C(=O)c1ccccc1-3` [PDZ-4, 2-(2-Morpholinethyl)-6-amino-2,7-dihydro-3H-dibenzo[de,h]cynnoline-3,7-dione], the IC50 is 2080 ± 169 nM in experiment [1]; 2550 ± 286 nM in experiment [2]; 4720 ± 389 nM in experiment [3]; 3280 ± 355 nM in experiment [4]; 2790 ± 276 nM in experiment [5]; 5110 ± 206 nM in experiment [6]. In experiment [7], the IC50 amounted to 16800 ± 410 nM. In addition, in experiment [2], the “RI resistance index HL60/VINC” value is listed as 1.2. The “RI resistance index HL60/DX” value in experiment [3] is 2.3. The Kapp relative constant of DNA-compound bonding in experiment [7] turned out to be 700000 M⁻¹.
For `CCNCCNc1ccc2c(=O)n(CCN(C)C)nc3c2c1C(=O)c1ccccc1-3` [Compound C-180, 2-[2-(Dimethylamino)ethyl]-6-{[2-(ethylamino)ethyl]amino}-2,7-dihydro-3H-dibenzo[de,h]cynnoline-3,7dione], the IC50 stood at 2.2 ± 0.1 nM in experiment [1]; 8.7 ± 0.4 nM in experiment [2]; 364 ± 36 nM in experiment [3]; 22.6 ± 5.2 nM in experiment [4]; 11 ± 1.4 nM in experiment [5]; 75.2 ± 16.2 nM in experiment [6]. This compound also gave an IC50 in experiment [7] of 280 ± 50 nM. For the same compound, the “RI resistance index HL60/VINC” value in experiment [2] is given as 4.0. Moreover, the “RI resistance index HL60/DX” value in experiment [3] is 165.5. For the same compound, the Kapp relative constant of DNA-compound bonding in experiment [7] came out at 4.53e+07 M⁻¹.
Regarding `CC(CNc1ccc2c(=O)n(CC(C)N(C)C)nc3c2c1C(=O)c1ccccc1-3)N(C)C` (stereo not shown) [Compound C-123, 2-[2-(Dimethylamino)propyl]-6-{[2-(dimethylamino)propyl]amino}-2,7-dihydro-3H-dibenzo[de,h]cynnoline-3,7-dione], the IC50 in experiment [1] was 8.7 ± 0.5 nM; in experiment [2] it was 58 ± 6 nM; in experiment [3] it was 827 ± 145 nM; in experiment [4] it was 25.6 ± 2.6 nM; in experiment [5], 52.9 ± 12.1 nM; in experiment [6], 127 ± 38.6 nM. Also, the IC50 in experiment [7] was found to be 310 ± 40 nM. For the same compound, the “RI resistance index HL60/VINC” value in experiment [2] turned out to be 6.7. For the same compound, in experiment [3], the “RI resistance index HL60/DX” value is 95.1. Besides, the Kapp relative constant of DNA-compound bonding in experiment [7] turned out to be 4.04e+07 M⁻¹.

Source of the values: patent publication US9096536B2, “Asymmetrically substituted anthrapyridazone derivatives as cytostatics” (BS-154 S.P. ZO.O., priority 2011, dated 2015).
